Laboratory results as given in ChEMBL document CHEMBL3885881, “DrugMatrix”.

Species on record: Rattus norvegicus
Assay: DrugMatrix - Regimen: Daily Repeat
Type: toxicity, organism-based, Sprague-Dawley
Design: regimen Daily Repeat, gender Male, age 6-8 weeks
Conditions: in vivo, sc, route subcutaneous, […]; for ABSOLUTE BASOPHIL / ABSOLUTE EOSINOPHIL / ABSOLUTE LYMPHOCYTE / ABSOLUTE MONOCYTE / ABSOLUTE SEGMENTED NEUTROPHIL / BASOPHIL / EOSINOPHIL / ERYTHROCYTE COUNT / HEMATOCRIT / HEMOGLOBIN / LEUKOCYTE COUNT / LYMPHOCYTE / MEAN CORPUSCULAR HEMOGLOBIN / MEAN CORPUSCULAR HEMOGLOBIN CONCENTRATION / MEAN CORPUSCULAR VOLUME / MONOCYTE / NEUTROPHIL / NUCLEATED RED BLOOD CELLS / PLATELET COUNT: tissue Blood; for ALANINE AMINOTRANSFERASE / ALBUMIN / ALKALINE PHOSPHATASE / ASPARTATE AMINOTRANSFERASE / BLOOD UREA NITROGEN / CARBON DIOXIDE / CHLORIDE / CHOLESTEROL / CREATINE PHOSPHOKINASE / CREATININE / GLUCOSE / LACTATE DEHYDROGENASE / LIPASE / PHOSPHORUS / POTASSIUM / SODIUM / TOTAL BILIRUBIN / TOTAL PROTEIN / URIC ACID: tissue Plasma
[1] = 0 mg/kg, 72 h, dose level Control, time 3 day
[2] = 0 mg/kg, 120 h, dose level Control, time 5 day
[3] = 2 mg/kg, 72 h, dose level Low, time 3 day

Q: Which results are given for `CCC(=O)O[C@]1(C(=O)CCl)[C@@H](C)C[C@H]2[C@@H]3CCC4=CC(=O)C=C[C@]4(C)[C@@]3(F)[C@@H](O)C[C@@]21C` [CLOBETASOL PROPIONATE]?
A: ABSOLUTE BASOPHIL [1]: 0 CELLS/uL; ABSOLUTE EOSINOPHIL [1]: 42.67 CELLS/uL; ABSOLUTE LYMPHOCYTE [1]: 10202 CELLS/uL; ABSOLUTE MONOCYTE [1]: 261.5 CELLS/uL; ABSOLUTE SEGMENTED NEUTROPHIL [1]: 2193.83 CELLS/uL; BASOPHIL [1]: 0%; EOSINOPHIL [1]: 0.33%; ERYTHROCYTE COUNT [1]: 5.63 x10E6/uL; HEMATOCRIT [1]: 35.35%; HEMOGLOBIN [1]: 13.07 G/DL; LEUKOCYTE COUNT [1]: 12.7 x10E3/uL; LYMPHOCYTE [1]: 81.17%; MEAN CORPUSCULAR HEMOGLOBIN [1]: 23.23 pg; MEAN CORPUSCULAR HEMOGLOBIN CONCENTRATION [1]: 36.97 G/DL; MEAN CORPUSCULAR VOLUME [1]: 62.82 fL; MONOCYTE [1]: 2%; NEUTROPHIL [1]: 16.5%; NUCLEATED RED BLOOD CELLS [1]: 0 /100WBC; PLATELET COUNT [1]: 1180.33 x10E3/uL; ALANINE AMINOTRANSFERASE [1]: 48.67 u/L; ALBUMIN [1]: 4.08 G/DL; ALKALINE PHOSPHATASE [1]: 360.67 u/L; ASPARTATE AMINOTRANSFERASE [1]: 85.5 u/L; BLOOD UREA NITROGEN [1]: 17.83 mg/dL; CARBON DIOXIDE [1]: 26.17 mmol/L; CHLORIDE [1]: 101.83 MEQ/L; CHOLESTEROL [1]: 71 mg/dL; CREATINE PHOSPHOKINASE [1]: 515.17 u/L; CREATININE [1]: 0.22 mg/dL; GLUCOSE [1]: 192.5 mg/dL; LACTATE DEHYDROGENASE [1]: 214.67 u/L; LIPASE [1]: 8.5 u/L; PHOSPHORUS [1]: 12.95 mg/dL; POTASSIUM [1]: 6.39 MEQ/L; SODIUM [1]: 142.38 MEQ/L; TOTAL BILIRUBIN [1]: 0.18 mg/dL; TOTAL PROTEIN [1]: 5.95 G/DL; URIC ACID [1]: 1.83 mg/dL; ABSOLUTE BASOPHIL [2]: 0 CELLS/uL; ABSOLUTE EOSINOPHIL [2]: 188.5 CELLS/uL; ABSOLUTE LYMPHOCYTE [2]: 12360.83 CELLS/uL; ABSOLUTE MONOCYTE [2]: 64.33 CELLS/uL; ABSOLUTE SEGMENTED NEUTROPHIL [2]: 1986.33 CELLS/uL; BASOPHIL [2]: 0%; EOSINOPHIL [2]: 1.33%; ERYTHROCYTE COUNT [2]: 5.52 x10E6/uL; HEMATOCRIT [2]: 35.82%; HEMOGLOBIN [2]: 13.25 G/DL; LEUKOCYTE COUNT [2]: 14.6 x10E3/uL; LYMPHOCYTE [2]: 84.5%; MEAN CORPUSCULAR HEMOGLOBIN [2]: 24.05 pg; MEAN CORPUSCULAR HEMOGLOBIN CONCENTRATION [2]: 36.98 G/DL; MEAN CORPUSCULAR VOLUME [2]: 64.97 fL; MONOCYTE [2]: 0.5%; NEUTROPHIL [2]: 13.67%; NUCLEATED RED BLOOD CELLS [2]: 0 /100WBC; PLATELET COUNT [2]: 1297.83 x10E3/uL; ALANINE AMINOTRANSFERASE [2]: 51.17 u/L; ALBUMIN [2]: 4.08 G/DL; ALKALINE PHOSPHATASE [2]: 393.17 u/L; ASPARTATE AMINOTRANSFERASE [2]: 111 u/L; BLOOD UREA NITROGEN [2]: 18.17 mg/dL; CARBON DIOXIDE [2]: 25 mmol/L; CHLORIDE [2]: 105.17 MEQ/L; CHOLESTEROL [2]: 65.5 mg/dL; CREATINE PHOSPHOKINASE [2]: 911.5 u/L; CREATININE [2]: 0.21 mg/dL; GLUCOSE [2]: 183 mg/dL; LACTATE DEHYDROGENASE [2]: 189 u/L; LIPASE [2]: 8.33 u/L; PHOSPHORUS [2]: 12.78 mg/dL; POTASSIUM [2]: 6.05 MEQ/L; SODIUM [2]: 144.57 MEQ/L; TOTAL BILIRUBIN [2]: 0.25 mg/dL; TOTAL PROTEIN [2]: 5.83 G/DL; URIC ACID [2]: 1.58 mg/dL; ABSOLUTE BASOPHIL [3]: 0 CELLS/uL; ABSOLUTE EOSINOPHIL [3]: 0 CELLS/uL; ABSOLUTE LYMPHOCYTE [3]: 788.33 CELLS/uL; ABSOLUTE MONOCYTE [3]: 9 CELLS/uL; ABSOLUTE SEGMENTED NEUTROPHIL [3]: 1836 CELLS/uL; BASOPHIL [3]: 0%; EOSINOPHIL [3]: 0%; ERYTHROCYTE COUNT [3]: 5.93 x10E6/uL; HEMATOCRIT [3]: 37.1%; HEMOGLOBIN [3]: 13.23 G/DL; LEUKOCYTE COUNT [3]: 2.63 x10E3/uL; LYMPHOCYTE [3]: 30%; MEAN CORPUSCULAR HEMOGLOBIN [3]: 22.33 pg; MEAN CORPUSCULAR HEMOGLOBIN CONCENTRATION [3]: 35.67 G/DL; MEAN CORPUSCULAR VOLUME [3]: 62.57 fL; MONOCYTE [3]: 0.33%; NEUTROPHIL [3]: 69.67%; NUCLEATED RED BLOOD CELLS [3]: 0 /100WBC; PLATELET COUNT [3]: 1219.67 x10E3/uL; ALANINE AMINOTRANSFERASE [3]: 121.33 u/L; ALBUMIN [3]: 4.93 G/DL; ALKALINE PHOSPHATASE [3]: 505.33 u/L; ASPARTATE AMINOTRANSFERASE [3]: 281.67 u/L; BLOOD UREA NITROGEN [3]: 25.67 mg/dL; CARBON DIOXIDE [3]: 21.33 mmol/L; CHLORIDE [3]: 99.33 MEQ/L; CHOLESTEROL [3]: 138.33 mg/dL; CREATINE PHOSPHOKINASE [3]: 1714.67 u/L; CREATININE [3]: 0.33 mg/dL; GLUCOSE [3]: 547 mg/dL; LACTATE DEHYDROGENASE [3]: 291 u/L; LIPASE [3]: 10 u/L; PHOSPHORUS [3]: 12.6 mg/dL; POTASSIUM [3]: 5.98 MEQ/L; SODIUM [3]: 140.33 MEQ/L; TOTAL BILIRUBIN [3]: 0.2 mg/dL; TOTAL PROTEIN [3]: 7.07 G/DL; URIC ACID [3]: 2.33 mg/dL
